{"source": "patent US12629406B2", "about": "“Alterations in endothelin receptors following hemorrhage and resuscitation by centhaquin” (MIDWESTERN UNIVERSITY, priority 2018, dated 2026)", "key": {"[1]": {"test": "Rat hemorrhagic shock, normal saline resuscitation: blood gases, hematocrit, lactate, MAP", "type": "in vivo", "procedure": "Animal Studies. Male Sprague-Dawley rats (340 to 380 g) (Envigo, Indianapolis, IN) were housed for at least 4 days in a room with controlled temperature (23±1° C.), humidity (50±10%) and light (6:00 A.M. to 6:00 P.M.) before being used. Food and water were made available continuously. Animal care and use for experimental procedures were approved by the Institutional Animal Care and Use Committee of the Midwestern University. All anesthetic and surgical procedures were in compliance with the guidelines established by the Animal Care Committee.\n(§1) Determination of cardiovascular response. The animals were anesthetized with urethane dissolved in isotonic saline. Urethane was administered in a dose of 1.5 g per kg body weight via intraperitoneal injection. Urethane was selected as an anesthetic agent, because it produces long lasting (8-10 hours) anesthesia with minimal cardiovascular and respiratory system depression. It produces a level of surgical anesthesia characterized by preservation of cardiovascular reflexes (Maggi and Meli 1986). Briefly, anaesthetized rats were immobilized on a surgical board equipped with controlled heating pad. Blood PO2, Pco2 and pH, were maintained using a tracheotomy cannula connected to a rodent ventilator (Model 683, Harvard Apparatus Inc., Holliston, MA). MAP and HR were measured by cannulating the left femoral artery with pressure catheter SPR-320 (Millar Instruments), connected to the ML221 bridge amplifier (AD Instruments) through AEC-10C connector and the signals were acquired (1000 S^−1) using PowerLab 16/30 data acquisition system (Gulati et al. 2012; Pacher et al. 2008). A Perimed laser Doppler flow probe was placed in the renal medulla to measure blood perfusion and data was captured on PowerLab 16/30 data acquisition system. The left femoral vein was cannulated using PE 50 tubing (Clay Adams, Parsipanny, NJ) and secured for resuscitation.\nDetermination of arterial blood gases and base deficit. Baseline arterial blood pH, PO2, Pco2, Na^+, K^+ and lactate were monitored prior to induction of shock, 30 minutes after induction of shock, and 30 and 60 minutes following vehicle or centhaquin resuscitation. Blood samples (0.15 ml) were drawn from the arterial cannula using blood gas sampling syringes (Innovative Medical Technologies, Inc. Leawood, KS) and analyzed using a pHOx Ultra analyzer (Nova Biomedical Corporation, Waltham, MA). The base deficit was calculated using the formula (Davis et al. 1998; Paladino et al. 2008): SBD=0.9287×[HCO3^−−24.4+14.83×(pH-7.4)]\nInduction of Hemorrhagic Shock. Hemorrhage was induced by withdrawing blood from the femoral artery at a rate of approximately 0.5 to 1 mL/min until a MAP of 35 mmHg was reached. This MAP was maintained for 30 minutes by further withdrawal of blood, if necessary. The hemorrhagic shock model used in the present study is a well-established rodent model of manageable pressure hemorrhage (Buehler et al. 2000; Gulati et al. 1997; Gulati and Sen 1998). The volume of blood loss was about approximately 8.0 ml in each rat and was similar in various groups, amounting to approximately 40% of the total blood. Measured hematocrit levels were similar in various groups. […]\n(§2) Experimental design. […] Additional experiments were also carried out where the amount of norepinephrine (a very commonly used vasopressor during resuscitation) required to maintain MAP at 70 mmHg in normal saline (NS) or centhaquin (0.01 mg/kg) treated rats (volume equal to blood loss) was determined. […]"}, "[2]": {"test": "Renal medullary blood perfusion (laser Doppler) in hemorrhaged rats", "type": "in vivo, rat", "procedure": "as §1, with “Blood PO2, Pco2 and pH, were maintained using a tracheotomy cannula connected to a rodent ventilator (Model 683, Harvard Apparatus Inc., Holliston, MA).” left out, “A Perimed laser Doppler flow probe was placed in the renal medulla to measure blood perfusion and data was captured on PowerLab 16/30 data acquisition system. The left femoral vein was cannulated using PE 50 tubing (Clay Adams, Parsipanny, NJ) and secured for resuscitation.” left out\nInduction of Hemorrhagic Shock. […] Measured hematocrit levels were similar in various groups. […]\nas §2"}}}
{"smiles": "Cc1cccc(N2CCN(CCc3ccc4ccccc4n3)CC2)c1", "note": "[centhaquin, 2-[2-(4-(3-methyphenyl)-1-piperazinyl)]ethyl-quinoline]", "values": [{"measurement": "effect on blood pH of hemorrhaged rats", "setting": "[1]; centhaquin 0.01 and 0.10 mg/kg in normal saline", "result": "significantly prevented the reduction of pH"}, {"measurement": "MAP post resuscitation", "setting": "[1]; centhaquin 0.01 and 0.10 mg/kg, p<0.01", "result": "significant increase"}, {"measurement": "blood lactate levels compared to the saline group", "setting": "[1]; normal saline model", "result": "decrease"}, {"measurement": "change in hematocrit after treatment", "setting": "[1]; normal saline model", "result": "no change"}, {"measurement": "effect on hemorrhage-induced decrease in pCO2 and increase in pO2", "setting": "[1]; resuscitation with centhaquin in normal saline", "result": "not affected"}, {"measurement": "renal blood perfusion compared to equal volume of saline", "setting": "[2]; hemorrhaged female rats", "result": "significantly improved"}, {"measurement": "renal blood perfusion compared to equal volume of saline", "setting": "[2]; hemorrhaged male rats, low doses of centhaquin", "result": "significantly improved"}]}
